In ChEMBL document CHEMBL1154479, “Newer GABA derivatives for the treatment of epilepsy including febrile seizures: a bioisosteric approach” (Eur J Med Chem, 2008):
Calls of active or inactive are those of the source. No cut-off for these calls is given here.

Key:
[1] = tested on: Mus musculus; assay: Anticonvulsant activity in ip dosed Swiss albino mouse assessed as inhibition of subcutaneous strychnine-induced seizures administered 30 mins before STY challenge measured after 0.5 hrs post STY challenge; assay type: functional
[2] = tested on: Mus musculus; assay: Anticonvulsant activity in ip dosed Swiss albino mouse assessed as inhibition of subcutaneous strychnine-induced seizures administered 30 mins before STY challenge measured after 4 hrs post STY challenge; assay type: functional
[3] = tested on: Rattus norvegicus; assay: Anticonvulsant activity in Wistar rat assessed as protection against hyperthermia-induced seizures at 100 mg/kg, ip relative to control; assay type: functional; settings: route intraperitoneal
[4] = tested on: Mus musculus; assay: Neurotoxicity in Swiss albino mouse assessed as inability of animal to maintain equilibrium on the rod for at least 1 min at 300 mg/kg, ip after 0.5 hrs by rotarod test; assay type: toxicity, organism-based; design: dose 300 mg/kg, route intraperitoneal; settings: in vivo
[5] = tested on: Mus musculus; assay: Neurotoxicity in Swiss albino mouse assessed as inability of animal to maintain equilibrium on the rod for at least 1 min at 300 mg/kg, ip after 4 hrs by rotarod test; assay type: toxicity, organism-based; design: dose 300 mg/kg, route intraperitoneal; settings: in vivo
[6] = tested on: Mus musculus; assay: Anticonvulsant activity in Swiss albino mouse assessed as inhibition of maximal electroshock-induced seizures at 300 mg/kg, ip administered 30 mins before electroshock measured after 0.5 hrs post electroshock; assay type: functional, organism-based; design: dose 300 mg/kg
[7] = tested on: Mus musculus; assay: Anticonvulsant activity in Swiss albino mouse assessed as inhibition of subcutaneous pentylenetetrazole-induced seizures at 300 mg/kg, ip administered 30 mins before PTZ challenge measured after 0.5 hrs post PTZ challenge; assay type: functional, organism-based; design: dose 300 mg/kg
[8] = tested on: Mus musculus; assay: Anticonvulsant activity in Swiss albino mouse assessed as inhibition of subcutaneous pentylenetetrazole-induced seizures at 300 mg/kg, ip administered 30 mins before PTZ challenge measured after 4 hrs post PTZ challenge; assay type: functional, organism-based; design: dose 300 mg/kg
[9] = tested on: Mus musculus; assay: Anticonvulsant activity in Swiss albino mouse assessed as inhibition of subcutaneous strychnine-induced seizures at 300 mg/kg, ip administered 30 mins before STY challenge measured after 4 hrs post STY challenge; assay type: functional, organism-based; design: dose 300 mg/kg
[10] = tested on: Mus musculus; assay: Anticonvulsant activity in ip dosed Swiss albino mouse assessed as inhibition of subcutaneous pentylenetetrazole-induced seizures administered 30 mins before PTZ challenge measured after 0.5 hrs post PTZ challenge; assay type: functional
[11] = tested on: Mus musculus; assay: Neurotoxicity in ip dosed Swiss albino mouse assessed as inability of animal to maintain equilibrium on the rod for at least 1 min after 0.5 hrs by rotarod test; assay type: toxicity, organism-based; settings: in vivo
[12] = tested on: Mus musculus; assay: Anticonvulsant activity in Swiss albino mouse assessed as inhibition of subcutaneous strychnine-induced seizures at 300 mg/kg, ip administered 30 mins before STY challenge measured after 0.5 hrs post STY challenge; assay type: functional, organism-based; design: dose 300 mg/kg
[13] = tested on: Mus musculus; assay: Anticonvulsant activity in ip dosed Swiss albino mouse assessed as inhibition of maximal electroshock-induced seizures administered 30 mins before electroshock measured after 0.5 hrs post electroshock; assay type: functional
[14] = tested on: Mus musculus; assay: Anticonvulsant activity in Swiss albino mouse assessed as inhibition of subcutaneous picrotoxin-induced seizures at 300 mg/kg, ip administered 30 mins before PIC challenge measured after 0.5 hrs post PIC challenge; assay type: functional, organism-based; design: dose 300 mg/kg
[15] = tested on: Mus musculus; assay: Anticonvulsant activity in Swiss albino mouse assessed as inhibition of subcutaneous picrotoxin-induced seizures at 300 mg/kg, ip administered 30 mins before PIC challenge measured after 4 hrs post PIC challenge; assay type: functional, organism-based; design: dose 300 mg/kg
[16] = tested on: Mus musculus; assay: Anticonvulsant activity in ip dosed Swiss albino mouse assessed as inhibition of subcutaneous picrotoxin-induced seizures administered 30 mins before PIC challenge measured after 0.5 hrs post PIC challenge; assay type: functional
[17] = tested on: Mus musculus; assay: Anticonvulsant activity in ip dosed Swiss albino mouse assessed as inhibition of subcutaneous picrotoxin-induced seizures administered 30 mins before PIC challenge measured after 4 hrs post PIC challenge; assay type: functional
[18] = tested on: Mus musculus; assay: Anticonvulsant activity in ip dosed Swiss albino mouse assessed as inhibition of subcutaneous pentylenetetrazole-induced seizures administered 30 mins before PTZ challenge measured after 4 hrs post PTZ challenge; assay type: functional
[19] = tested on: Mus musculus; assay: Neurotoxicity in ip dosed Swiss albino mouse assessed as inability of animal to maintain equilibrium on the rod for at least 1 min after 4 hrs by rotarod test; assay type: toxicity, organism-based; settings: in vivo

Structure (SMILES)	Activity [1] [mg/kg]	Activity [2] [mg/kg]	Activity [3] [%]	Activity [4]	Activity [5]	Activity [6]	Activity [7]	Activity [8]	Activity [9]	Activity [10] [mg/kg]	Activity [11] [mg/kg]	Activity [12]	Activity [13] [mg/kg]	Activity [14]	Activity [15]	Activity [16] [mg/kg]	Activity [17] [mg/kg]	Activity [18] [mg/kg]	Activity [19] [mg/kg]
CN(C)c1ccc(/C=N/NC(=S)NCCCC(=O)O)cc1	300	300	88	Non-toxic	Non-toxic	inactive	inactive	inactive											
O=C(O)CCCNC(=S)N/N=C/c1ccccc1O	100		92	Non-toxic	Non-toxic	inactive		inactive	inactive	100									
O=C(O)CCCNC(=S)N/N=C/c1ccc(Cl)cc1	300	300	49		Non-toxic	inactive		inactive		100	100								
O=C(O)CCCNC(=S)NN=C(c1ccccc1)c1ccccc1			83	Non-toxic	Non-toxic		inactive	inactive	inactive			inactive	300						
O=C(O)CCCNC(=S)NN=C1CCCC1			71	Non-toxic	Non-toxic	inactive		inactive	inactive	100		inactive		inactive	inactive				
O=C(O)CCCNC(=S)N/N=C/c1ccc([N+](=O)[O-])cc1			85	Non-toxic	Non-toxic	inactive	inactive	inactive	inactive			inactive				300	300		
C/C(=N\NC(=S)NCCCC(=O)O)c1ccc(C)cc1			80	Non-toxic	Non-toxic	inactive	inactive	inactive	inactive			inactive		inactive	inactive				
O=C(O)CCCNC(=S)N/N=C/c1cccc([N+](=O)[O-])c1	300		51	Non-toxic	Non-toxic	inactive	inactive		inactive							100	100	300	
O=C(O)CCCNC(=S)NN=C(Cc1ccccc1)Cc1ccccc1			73	Non-toxic		inactive	inactive	inactive	inactive			inactive			inactive				300
O=C(O)CCCNC(=S)NN=C1CCCCC1			78	Non-toxic	Non-toxic	inactive	inactive	inactive	inactive			inactive				300	300		
Nc1nnc(-c2cccc(Cl)c2Cl)c(N)n1 [LAMOTRIGINE]			51					inactive	inactive	30	100	inactive	30	inactive	inactive				100
O=C(O)CCCNC(=S)N/N=C1\C(=O)Nc2ccccc21			92	Non-toxic	Non-toxic	inactive		inactive	inactive	30		inactive				300	300		
C/C(=N\NC(=S)NCCCC(=O)O)c1ccc([N+](=O)[O-])cc1			46			inactive	inactive	inactive	inactive		100	inactive		inactive	inactive				100
C/C(=N\NC(=S)NCCCC(=O)O)c1ccccc1			90	Non-toxic	Non-toxic	inactive		inactive	inactive	300		inactive				100	100		
O=C(O)CCCNC(=S)N/N=C(\c1ccccc1)c1ccc(Br)cc1	100		19		Non-toxic	inactive	inactive	inactive	inactive		300								
CCC1(C)CC(=O)NC1=O (configuration not stated) [ETHOSUXIMIDE]				Non-toxic	Non-toxic	inactive		inactive	inactive	300		inactive		inactive	inactive				
O=C1NC(=O)C(c2ccccc2)(c2ccccc2)N1 [PHENYTOIN]							inactive	inactive	inactive		100	inactive	30	inactive	inactive				100
NNC(=S)NCCCC(=O)O			27				inactive	inactive	inactive		300	inactive	300	inactive	inactive				300
C/C(=N\NC(=S)NCCCC(=O)O)c1cccc(N)c1			27	Non-toxic	Non-toxic	inactive	inactive	inactive	inactive			inactive				300	300		
